# Activity calls are given as the source filed them. The calls are words filed in the database; no cut-off is given here.
# Assays:
# [1] = tested on: HeLa; experiment: Cell cycle arrest in human HeLa cells assessed as 2N stage DNA at 5 uM for 20 hrs by PI staining/FACS analysis (reference value: 58 no unit); format: functional
# [2] = tested on: HeLa; experiment: Cytotoxicity against human HeLa cells assessed as inhibition of cell viability after 24 hrs by WST1 assay; format: functional, cell-based
# [3] = tested on: HeLa; experiment: Cell cycle arrest in human HeLa cells assessed as >4N stage DNA at 1 uM for 20 hrs by PI staining/FACS analysis (reference value: 14.2 no unit); format: functional
# [4] = Cell cycle arrest in human PC3 cells assessed as 4N stage DNA at 5 uM for 20 hrs by PI staining/FACS analysis (Rvb =34.4 no unit); format: functional, cell-based; conditions: PC-3
# [5] = Cell cycle arrest in human PC3 cells assessed as >4N stage DNA at 5 uM for 20 hrs by PI staining/FACS analysis (Rvb =23 no unit); format: functional, cell-based; conditions: PC-3
# [6] = tested on: HeLa; experiment: Mitotic arrest in human HeLa cells assessed as increase in accumulation at G2/M phase at 5 uM for 24 hrs by PI staining/FACS analysis; format: functional, cell-based
# [7] = tested on: HeLa; experiment: Mitotic arrest in human HeLa cells assessed as structure at 3 uM for 60 mins and measured after 20 hrs of washout by FITC staining; format: functional, cell-based
# [8] = tested on: MCF7; experiment: Cell cycle arrest in human MCF7 cells assessed as 2N stage DNA at 1 uM for 20 hrs by PI staining/FACS analysis (reference value: 31.6 no unit); format: functional
# [9] = tested on: BSC-1; experiment: Mitotic arrest in African green monkey BSC1 cells assessed as accumulation of round cells with intense stained tubulin and DNA structures at 3 uM for 20 hrs by FITC/TRITC staining; format: functional, cell-based; conditions: Chlorocebus aethiops
# [10] = tested on: HeLa; experiment: Cell cycle arrest in human HeLa cells assessed as <2N stage DNA at 5 uM for 20 hrs by PI staining/FACS analysis (reference value: 2.19 no unit); format: functional
# [11] = tested on: MCF7; experiment: Cell cycle arrest in human MCF7 cells assessed as 2N stage DNA at 5 uM for 20 hrs by PI staining/FACS analysis (reference value: 31.6 no unit); format: functional
# [12] = tested on: HeLa; experiment: Cell cycle arrest in human HeLa cells assessed as 2N stage DNA at 1 uM for 20 hrs by PI staining/FACS analysis (reference value: 58 no unit); format: functional
# [13] = biological target: Tubulin (Sus scrofa) (UniProt P02554+P02550); experiment: Inhibition of porcine brain tubulin polymerization at 50 uM by turbidity assay
# [14] = Cell cycle arrest in human PC3 cells assessed as 4N stage DNA at 1 uM for 20 hrs by PI staining/FACS analysis (Rvb =34.4 no unit); format: functional, cell-based; conditions: PC-3
# [15] = Cell cycle arrest in human PC3 cells assessed as <2N stage DNA at 5 uM for 20 hrs by PI staining/FACS analysis (reference value: 0.59 no unit); format: functional, cell-based; conditions: PC-3
# [16] = tested on: HeLa; experiment: Cell cycle arrest in human HeLa cells assessed as 4N stage DNA at 1 uM for 20 hrs by PI staining/FACS analysis (reference value: 24.8 no unit); format: functional
# [17] = tested on: HeLa; experiment: Cell cycle arrest in human HeLa cells assessed as <2N stage DNA at 1 uM for 20 hrs by PI staining/FACS analysis (reference value: 2.19 no unit); format: functional
# [18] = tested on: MCF7; experiment: Cell cycle arrest in human MCF7 cells assessed as >4N stage DNA at 5 uM for 20 hrs by PI staining/FACS analysis (Rvb =23.8 no unit); format: functional
# [19] = biological target: T1, Tubulin (Homo sapiens) (UniProt P68371+Q9H4B7+P0DPH7+P68366+Q13509+Q71U36+P04350+Q3ZCM7+P07437+P68363+Q9BQE3+Q6PEY2+Q13885+Q9BVA1+Q9BUF5); experiment: (§1) Displacement of BODIPY-FL-vinblastine from tubulin (unknown origin); format: protein-complex assay
# [20] = biological target: Tubulin; experiment: as §1; format: protein-complex assay, Homo sapiens
# [21] = tested on: HeLa; experiment: Cell cycle arrest in human HeLa cells assessed as >4N stage DNA at 5 uM for 20 hrs by PI staining/FACS analysis (reference value: 14.2 no unit); format: functional
# [22] = tested on: MCF7; experiment: Cell cycle arrest in human MCF7 cells assessed as >4N stage DNA at 1 uM for 20 hrs by PI staining/FACS analysis (Rvb =23.8 no unit); format: functional
# [23] = tested on: HeLa; experiment: Cell cycle arrest in human HeLa cells assessed as 4N stage DNA at 5 uM for 20 hrs by PI staining/FACS analysis (reference value: 24.8 no unit); format: functional
# [24] = tested on: MCF7; experiment: Cell cycle arrest in human MCF7 cells assessed as <2N stage DNA at 5 uM for 20 hrs by PI staining/FACS analysis (reference value: 0.39 no unit); format: functional
# [25] = tested on: MCF7; experiment: Cell cycle arrest in human MCF7 cells assessed as 4N stage DNA at 5 uM for 20 hrs by PI staining/FACS analysis (Rvb =40.8 no unit); format: functional
# [26] = tested on: HeLa; experiment: Mitotic arrest in human HeLa cells assessed as cells with condensed chromosomes not aligned to metaphase plate at 3 uM for 20 hrs by FITC/TRITC staining; format: functional, cell-based
# [27] = tested on: HeLa; experiment: Mitotic arrest in human HeLa cells assessed as cells devoid of mitotic spindles at 3 uM for 20 hrs by FITC/TRITC staining; format: functional, cell-based
# [28] = Cell cycle arrest in human PC3 cells assessed as 2N stage DNA at 5 uM for 20 hrs by PI staining/FACS analysis (reference value: 42 no unit); format: functional, cell-based; conditions: PC-3
# [29] = tested on: MCF7; experiment: Cell cycle arrest in human MCF7 cells assessed as 4N stage DNA at 1 uM for 20 hrs by PI staining/FACS analysis (Rvb =40.8 no unit); format: functional
# [30] = Cell cycle arrest in human PC3 cells assessed as <2N stage DNA at 1 uM for 20 hrs by PI staining/FACS analysis (reference value: 0.59 no unit); format: functional, cell-based; conditions: PC-3
# [31] = tested on: MCF7; experiment: Cell cycle arrest in human MCF7 cells assessed as <2N stage DNA at 1 uM for 20 hrs by PI staining/FACS analysis (reference value: 0.39 no unit); format: functional
# [32] = Cell cycle arrest in human PC3 cells assessed as >4N stage DNA at 1 uM for 20 hrs by PI staining/FACS analysis (Rvb =23 no unit); format: functional, cell-based; conditions: PC-3
# [33] = biological target: T1, Tubulin (Homo sapiens); experiment: Displacement of colchicine from tubulin (unknown origin) by FITC staining; format: protein-complex assay
# [34] = tested on: HeLa; experiment: Mitotic arrest in human HeLa cells assessed as structure at 3 uM for 60 mins and measured after 20 hrs of washout and applied 3 uM after washout by FITC staining; format: functional, cell-based
# [35] = tested on: BSC-1; experiment: Inhibition of repolymerization of microtubule in cold treated African green monkey BSC1 cells at 5 uM for 20 hrs by DAPI staining; format: cell-based; conditions: Chlorocebus aethiops
# [36] = tested on: HeLa; experiment: Mitotic arrest in human HeLa cells assessed as accumulation of round cells with intense stained tubulin and DNA structures at 3 uM for 20 hrs by FITC/TRITC staining; format: functional, cell-based
# [37] = Cell cycle arrest in human PC3 cells assessed as 2N stage DNA at 1 uM for 20 hrs by PI staining/FACS analysis (reference value: 42 no unit); format: functional, cell-based; conditions: PC-3
# [38] = tested on: HeLa; experiment: Mitotic arrest in human HeLa cells assessed as increase in accumulation at G2/M phase at 1 uM for 24 hrs by PI staining/FACS analysis; format: functional, cell-based
# Sequence of Tubulin (Sus scrofa) (P02550 whole entry, looked up): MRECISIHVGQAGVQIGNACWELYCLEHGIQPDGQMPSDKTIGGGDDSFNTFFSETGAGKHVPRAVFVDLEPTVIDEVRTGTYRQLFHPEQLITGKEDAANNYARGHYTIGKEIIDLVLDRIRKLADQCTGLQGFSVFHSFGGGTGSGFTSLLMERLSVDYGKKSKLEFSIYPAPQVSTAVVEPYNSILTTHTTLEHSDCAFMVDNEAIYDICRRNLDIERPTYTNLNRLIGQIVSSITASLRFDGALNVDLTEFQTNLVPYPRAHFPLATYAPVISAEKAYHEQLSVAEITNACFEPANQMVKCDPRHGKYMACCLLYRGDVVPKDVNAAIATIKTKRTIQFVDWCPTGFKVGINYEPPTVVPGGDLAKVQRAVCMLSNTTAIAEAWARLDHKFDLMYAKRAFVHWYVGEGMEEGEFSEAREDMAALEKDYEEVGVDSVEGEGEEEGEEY
# Sequence of Tubulin (Sus scrofa) (P02554 whole entry, looked up): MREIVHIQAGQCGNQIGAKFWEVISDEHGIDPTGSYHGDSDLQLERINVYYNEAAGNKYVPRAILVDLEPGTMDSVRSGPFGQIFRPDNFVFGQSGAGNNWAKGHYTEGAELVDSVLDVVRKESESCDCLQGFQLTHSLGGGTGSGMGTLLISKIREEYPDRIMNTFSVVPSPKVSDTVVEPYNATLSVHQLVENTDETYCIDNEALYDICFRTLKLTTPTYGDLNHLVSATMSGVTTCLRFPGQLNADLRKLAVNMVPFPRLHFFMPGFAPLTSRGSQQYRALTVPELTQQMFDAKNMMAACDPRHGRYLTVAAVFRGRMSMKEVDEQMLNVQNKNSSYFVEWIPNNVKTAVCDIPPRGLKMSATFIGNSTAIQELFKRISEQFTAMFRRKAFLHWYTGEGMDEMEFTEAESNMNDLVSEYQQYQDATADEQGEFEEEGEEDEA
structure (smiles),measurement,setting,value
COc1c(-c2ccc(O)c(O)c2CC=C(C)C)oc2cc(O)cc(O)c2c1=O,Flu intensity,[1],9.6
same,IC50,[2],0.79 µM
same,inhibition,[2],Dose-dependent effect
same,Flu intensity,[3],13.8
same,Flu intensity,[4],47.5
same,Flu intensity,[5],30.8
same,Activity,[6],Active
same,Activity,[7],inactive
same,Flu intensity,[8],32
same,Activity,[9],Active
same,Flu intensity,[10],9.84
same,Flu intensity,[11],9.57
same,Flu intensity,[12],40.4
same,inhibition,[13],Active
same,Flu intensity,[14],42
same,Flu intensity,[15],12.6
same,Flu intensity,[16],40.2
same,Flu intensity,[17],5.6
same,Flu intensity,[18],27
same,inhibition,[19],Dose-dependent effect
same,EC50,[20],14.7 µM
same,Flu intensity,[21],21.8
same,Flu intensity,[22],29.6
same,Flu intensity,[23],58.2
same,Flu intensity,[24],2
same,Flu intensity,[25],61.5
same,Activity,[26],Active
same,Activity,[27],Active
same,Flu intensity,[28],9.24
same,Flu intensity,[29],36.3
same,Flu intensity,[30],2.23
same,Flu intensity,[31],1.07
same,Flu intensity,[32],26.5
same,Activity,[33],inactive
same,Activity,[34],Active
same,inhibition,[35],Active
same,Activity,[36],Active
same,Flu intensity,[37],27.6
COC(=O)Nc1nc2cc(C(=O)c3cccs3)ccc2[nH]1 [NOCODAZOLE],Flu intensity,[3],16.9
same,Flu intensity,[8],9.16
same,Flu intensity,[12],8.61
same,Flu intensity,[14],51.7
same,Flu intensity,[16],64.7
same,Flu intensity,[17],9.75
same,Flu intensity,[22],30.7
same,Flu intensity,[29],57.5
same,Activity,[38],Active
same,Flu intensity,[30],10.7
same,Flu intensity,[31],0.72
same,Flu intensity,[32],29.4
same,Flu intensity,[37],7.64

# — ChEMBL document CHEMBL3352305, “Podoverine A--a novel microtubule destabilizing natural product from the Podophyllum species” (Bioorg Med Chem, 2014)
